Source: US20230064978A1, “CYCLIC PEPTIDE RECEPTOR LANTHIONINE SYNTHETASE C-LIKE PROTEIN (LANCL) AND USES THEREOF” (LATERAL IP PTY LTD, priority 2019, published 2023)
“Also recorded” adds a separate entry of the source. Bridges are numbered along the chain shown (N, C = ends). Where no end group is shown, it is not given here.

Assays:
[1] = tested on: spinal cord slice model; assay: Spinal cord slice model; settings: data not shown
[2] = tested on: tissue homogenates of nerve from neuropathic animals; assay: PAL cross-linking to nerve tissue homogenates and gel separation; type: binding
Excerpt: Using a ligand driven approach, the present inventors utilized the photo-activatable cross-linking PAL from Evotec A.G. (Photo-Activated Labelling) technology that derivatizes the active cyclic peptides to allow UV-induced cross-linking to binding targets (described herein as peptide/SEQ ID NO:X-PAL). This allows subsequent detection in cells, gels of tissue isolates or in pull-down of the peptide/target complex for sequencing by mass spectroscopy (PALMS).
LAT9991-PAL was cross-linked to tissue homogenates of nerve from neuropathic animals.

[3] = tested on: DRG neurons; assay: Confocal microscopy of PAL probe binding in DRG cell cultures, spinal nerve ligation model; type: cell-based, Sprague Dawley rats
Excerpt: LAT9991-PAL was used in conjunction with confocal microscopy to visualise the location of potential target(s), noting that analgesic agents can have activity at several sites, either on central or peripheral neurons, or on glial or inflammatory cells that are in proximity to neurons. To identify the cell types to which LAT9991-PAL binds, 3-day cell cultures of DRG from neuropathic or control sites were taken from animals with neuropathy due to spinal nerve ligation. Briefly, L5 and L6 spinal nerves of male Sprague Dawley rats were ligated to create a robust and long-lasting mechanical allodynia of the injured hind paw. Presence of neuropathic pain was confirmed 2 weeks post-spinal nerve ligation surgeries (day 14) using von Frey (VF) filaments (up-and-down method) applied on ipsilateral (injured) and contralateral (non-injured) paw). Live DRG cells were dissected out as described previously and incubated with LAT9991-PAL for 1 hour prior to UV irradiation to fix the binding in situ. […] As a specificity control, the binding of LAT9991-PAL to the neuropathic DRG was blocked in the presence of an excess amount of unlabeled LAT9991 peptide.

[4] = tested on: NCI-H358 cells; assay: Confocal imaging of LAT9991F-PAL binding and LANCL1 co-localization, with siRNA knockdown and competitors, in NCI-H358 cells; type: cell-based; settings: SiLANCL1 NCI-H358 cells; competitor 25 μM
Method: (§1) A photoactivatable analog of LAT8881 (LAT9991F (SEQ ID NO:13)-PAL), was used to conduct the experiments. A549 or NCI-H358 cells were treated with LAT9991F-PAL at 2.5 μM during 30 minutes. Fluorescent signal was recorded after that LAT9991F-PAL was immobilized on its target(s) site by UV-crosslinking and the LAT9991F-PAL-target complexes were labeled with the green-fluorescent Alexa Fluor 488 alkyne dye by click-chemistry. Control cells were treated with the vehicle, dimethyl sulfoxide (DMSO), and with LAT9991F-PAL in combination with a large excess of the parent drug LAT8881 or other competitors, GSH, NSC61610 or ABA to evaluate, respectively, the non-specific fluorescent background and the specificity of the staining. For colocalization experiments, subsequently, immunofluorescence staining with an anti-LANCL1 or LANCL2 antibodies and an Alexa 568 (red) conjugated secondary antibody was performed. Images stacks of cells labeled with probes were collected and evaluated for the degree of colocalization of LAT9991F-PAL-target complexes and LANCL1 or LANCL2 using either the Measure Colocalization plugin in Metamorph or the JACoP plugin in ImageJ).
(§2) A549 or NCI-H358 cells (ATCC CCL-185 and ATCC CRL-5807, respectively) were cultured in appropriate medium containing 10% heat-inactivated FBS (Dutscher, #SV30160-036), 1% penicillin/streptomycin (Gibco, #15140-122) and maintained in a humidified 37° C. incubator with 5% CO2.
(§3) LAT9991F-PAL was dissolved in DMSO to make a 10 mM stock solution. Intermediate solutions at 25 μM and 2.5 μM were made in the culture medium from the 10 mM stock solutions of LAT8881 and LAT9991F-PAL, respectively. A two-fold dilution into PBS of each intermediate solution was used for cell treatment. A stock solution at 10 mM was prepared for the other competitors as GSH, NSC61610 and ABA. A final concentration at 25 μM was used for the assay.
ibidiTreat Polymer Coverslips (Ibidi, #80826) were coated with serum during 1 hour at 37° C., followed by Laminin (100 μg\ml) (incubation for 1 hour at 37° C.) for NCI-H358 cells.
(§4) A549 or NCI-H358 cells were seeded onto ibidiTreat Polymer Coverslips (Ibidi, #80826) at 2.5×10^5 cells/cm^2 in 200 μl of complete medium. After 24 hours, the medium was removed and cells were washed with PBS (Gibco, #10010049) and then pre-treated with the Taxol at 1 μM for 3 hours or with H2O2 25 μM for 2 hours. Cells were washed twice with PBS. Induced stress cells or control cells were then exposed to LAT9991F-PAL (2.5 μM) in PBS for 30 minutes, in the presence or absence of LAT8881 (25 μM), or the other compounds used as a competitor, and pre-incubated 10 minutes. After treatment, cells were washed with cold PBS and UV-irradiated (365 nm) in PBS for 20 min. After fixation with 4% paraformaldehyde and permeabilization (0.5% Triton/PBS) (Image-iT™ Fixation/Permeabilization Kit, ThermoFisher, #R37602), the bioorthogonal reaction with Alexa Fluor 488 Alkyne (1 μM) (ThermoFisher, #A10267) was performed at 25° C. using the Click-iT™ Cell Reaction Buffer Kit (ThermoFisher, #C10269) according to the manufacturer protocol. After click reaction, cells were washed twice with PBS, blocked with 3% BSA in PBS for 1 hour and stained with Hoechst 33342 dye (ThermoFisher, #H1399).
(§5) For colocalization experiments, cells were further incubated overnight at 4° C. with a mouse anti-LanCL1 antibody (Invitrogen, PAS-57-107) (dilution 1:1000) or LanCL2 (Atlas Antibodies HPA019711) (dilution 1:1000) in 3% BSA in PBS, washed twice with PBS, and then incubated respectively with a goat anti-mouse […] (Molecular Probes, #A21467) (dilution 1:800) for 1 h in 3% BSA in PBS. After three further washing steps with PBS, cells were embedded in Ibidi Mounting Medium (ibidi, #50001). The specimens were kept at 4° C. in the dark until analysis.
Images were acquired on an Axiovert200M (Zeiss) microscope using a CSU-W1 Yokogawa confocal unit.

[5] = tested on: A549 cells; assay: Confocal imaging of LAT9991F-PAL binding and LANCL1 co-localization, with siRNA knockdown and competitors, in A549 cells; type: cell-based; settings: SiLANCL1 A549 cells; competitor 25 μM
Method: as §1, §2, §3, §4, §5
Images were acquired on an Axiovert200M (Zeiss) microscope using a CSU-W1 Yokogawa confocal unit. This microscope is equipped with a plan Apochromat X40 dry objective numerical aperture (NA) 0.95 and a Neofluar X100 oil immersion objective NA 1.45. Images were capture with an EMCCD camera (Prior, ProEM 1024×1024).

Substance | Activity on the spinal cord slice model [1] | Cross-linking of PAL probe to tissue homogenates of nerve from neuropathic animals [2] | Molecular weight ranges of targets stained after gel separation ([2]; FIG. 3 legend, LAT9991-PAL 5 μM) | Molecular weight ranges of targets stained after gel separation ([2]; PAL probe cross-linked to nerve homogenates) | Subcellular location of the target stained by PAL probe ([3]; high-powered imaging, neurons from neuropathic animals (FIG. 2)) | Localisation of PAL probe in DRG cell cultures ([3]; neuropathic vs unaffected DRG, 1 hour incubation before UV irradiation) | Competition of LAT9991F-PAL binding by excess competitor [4] | Competition of LAT9991F-PAL binding by excess competitor [5]
LAT9991-PAL: cyclic peptide of SEQ ID NO:12 (LAT9991) conjugated to the PAL (Photo-Activated Labelling) grouping (CRSVEGSCG; disulfide 1-8 (inferred); also: PAL group on N-terminal Cys-Arg part) | fully active | cross-linked; also recorded: shown to cross-link | 12-15 kDa, 37 kDa and 40-50 kDa | ˜12-15 kD, ˜37 kD and ˜50 kD | expressed just inside the neuronal cell membrane, and with punctate staining in the cytoplasm | localised only in neurons from neuropathic DRG and not from unaffected DRG |  | 
YLRIVQCRSVEGSCGF [LAT8881, a cyclic peptide fragment of human growth hormone] |  |  |  |  |  |  | partially competed off | partially competed off
